Results: US9776979B2, “EBI2 modulators” (Sanford-Burnham Medical Research Institute, priority 2013, dated 2017)
Where two headings read alike, the source gives them in different places.

Target: EBI2 (Homo sapiens, UniProt P32249)
Assay: Cell-based luminescent assay (EBI2 modulation)
Outline: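 Cells plated overnight at 37° C, then exposed to compound at 4-5 uM final with 80 nM 7a,25-OHC agonist for 60 min at 37° C. Luminescence read after 60 min detection at 25° C in the dark; values normalized to neutral and stimulator controls and plate-pattern corrected.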

[1] = cell-based luminescence, 7a,25-OHC final assay concentration 80 nM, 60 minutes incubation, read-out: IC50

Chain of EBI2 (P32249 whole entry): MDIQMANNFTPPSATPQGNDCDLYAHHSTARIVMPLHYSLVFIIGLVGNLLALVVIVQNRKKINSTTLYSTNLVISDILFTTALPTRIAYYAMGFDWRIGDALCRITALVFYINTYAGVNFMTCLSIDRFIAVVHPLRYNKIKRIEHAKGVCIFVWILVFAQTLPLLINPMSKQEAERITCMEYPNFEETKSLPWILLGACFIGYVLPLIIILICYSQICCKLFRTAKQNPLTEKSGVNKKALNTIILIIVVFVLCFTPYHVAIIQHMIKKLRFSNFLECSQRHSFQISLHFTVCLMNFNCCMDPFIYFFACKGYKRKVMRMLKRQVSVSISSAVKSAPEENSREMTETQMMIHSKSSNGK

SMILES	IC50 [1] [µM]	IC50 [µM]
O=C(c1ccc(Br)cc1)N1CCN(C(=O)c2cc3ccc(Br)cc3[nH]2)CC1 [Compound C264, 6-bromoindol-2-yl 4-[(4-bromophenyl)carbonyl]piperazinyl ketone]	< 0.1	–
O=C(/C=C/c1cccc(C(F)(F)F)c1)N1CCN(C(c2ccccc2)c2ccccc2)CC1 [Compound C265, (2E)-1-[4-(diphenylmethyl)piperazinyl]-3-[3-(trifluoromethyl)phenyl]prop-2-en-1-one]	< 0.1	–
O=C(C#Cc1ccc2c(c1)OCO2)N1CCN(C(=O)c2ccc(C(F)(F)F)cc2)CC1 [Compound C266, 3-(2H-benzo[3,4-d]1,3-dioxolen-5-yl)-1-(4-{[4-(trifluoromethyl)phenyl]carbonyl}piperazinyl)prop-2-yn-1-one]	< 0.1	–
O=C(/C=C/c1ccc(Br)cc1)N1CCN(C(=O)c2cccc(B(O)O)c2)CC1 [Compound C267, (E)-(3-(4-(3-(4-bromophenyl)acryloyl)piperazine-1-carbonyl)phenyl)boronic acid]	< 0.1	–
O=C(c1ccc(F)cc1)N1CCN(C(=O)c2cc3ccc(Cl)cc3[nH]2)CC1 [Compound C268, 6-chloroindol-2-yl 4-[(4-fluorophenyl)carbonyl]piperazinyl ketone]	< 0.1	–
O=C(/C=C/c1ccc(Br)cc1)N1CCN(Cc2ccccc2F)CC1 [Compound C269, (2E)-3-(4-bromophenyl)-1-{4-[(2-fluorophenyl)methyl]piperazinyl}prop-2-en-1-one]	< 0.1	–
O=C(/C=C/c1ccccc1)N1CCN(CCc2ccc(Cl)cc2)CC1 [Compound C270, (2E)-1-{4-[2-(4-chlorophenyl)ethyl]piperazinyl}-3-phenylprop-2-en-1-one]	< 0.1	–
O=C(c1cccc(C(F)(F)F)c1)N1CCN(C(=O)c2cc3cc(C(F)(F)F)ccc3[nH]2)CC1 [Compound C271, 5-(trifluoromethyl)indol-2-yl 4-{[3-(trifluoromethyl)phenyl]carbonyl}piperazinyl ketone]	< 0.1	–
O=C(c1cc2cc(Cl)ccc2[nH]1)N1CCC(Oc2cccc(Cl)c2)CC1 [Compound C272, 5-chloroindol-2-yl 4-(3-chlorophenoxy)piperidyl ketone]	< 0.1	–
O=C(c1cc2cc(Cl)ccc2[nH]1)N1CCC(Nc2cc(F)cc(F)c2)CC1 [Compound C273, 4-[(3,5-difluorophenyl)amino]piperidyl 5-chloroindol-2-yl ketone]	–	< 0.1
COc1ccc(CN2CCN(C(=O)C#Cc3ccc(Br)cc3)CC2)cc1 [Compound C274, 3-(4-bromophenyl)-1-{4-[(4-methoxyphenyl)methyl]piperazinyl}prop-2-yn-1-one]	< 0.1	–
O=C(c1cnc2ccccc2n1)N1CCN(C(c2ccccc2)c2ccccc2)CC1 [Compound C276, 4-(diphenylmethyl)piperazinyl quinoxalin-2-yl ketone]	0.1 to 0.5	–
O=C(/C=C/c1ccccc1C(F)(F)F)N1CCN(S(=O)(=O)c2ccc(Br)cc2)CC1 [Compound C277, (2E)-1-{4-[(4-bromophenyl)sulfonyl]piperazinyl}-3-[2-(trifluoromethyl)phenyl]prop-2-en-1-one]	0.1 to 0.5	–
O=C(c1cc2ccccn2n1)N1CCN(C(=O)c2cc3cc(Cl)ccc3[nH]2)CC1 [Compound C278, 5-chloroindol-2-yl 4-(8-hydropyrazolo[1,5-a]pyridin-2-ylcarbonyl)piperazinyl ketone]	0.1 to 0.5	–
O=C(c1cn2ccccc2n1)N1CCN(C(=O)c2cc3cc(Cl)ccc3[nH]2)CC1 [Compound C279, 5-chloroindol-2-yl 4-(4-hydroimidazo[1,2-a]pyridin-2-ylcarbonyl)piperazinyl ketone]	0.1 to 0.5	–
COc1cc2cc(C(=O)N3CCN(C(c4ccccc4)c4ccccc4)CC3)[nH]c2cc1OC [Compound C280, 5,6-dimethoxyindol-2-yl 4-(diphenylmethyl)piperazinyl ketone]	0.1 to 0.5	–
O=C(C#Cc1cccc(Cl)c1Cl)N1CCN(Cc2ccc(C(F)(F)F)cc2)CC1 [Compound C281, 3-(2,3-dichlorophenyl)-1-(4-{[4-(trifluoromethyl)phenyl]methyl}piperazinyl)prop-2-yn-1-one]	0.1 to 0.5	–
NC(=O)c1ccc(C(=O)N2CCN(C(=O)c3cc4cc(Cl)ccc4[nH]3)CC2)cc1 [Compound C282, 4-({4-[(5-chloroindol-2-yl)carbonyl]piperazinyl}carbonyl)benzamide]	0.1 to 0.5	–
O=C(c1ccc2nc(C(F)F)[nH]c2c1)N1CCN(C(c2ccccc2)c2ccccc2)CC1 [Compound C283, 2-(difluoromethyl)benzimidazol-5-yl 4-(diphenylmethyl)piperazinyl ketone]	0.1 to 0.5	–
O=C(C#Cc1ccc(Cl)c(Cl)c1)N1CCN(Cc2ccc(F)cc2)CC1 [Compound C284, 3-(3,4-dichlorophenyl)-1-{4-[(4-fluorophenyl)methyl]piperazinyl}prop-2-yn-1-one]	0.1 to 0.5	–
O=C(c1cc2cc(Cl)ccc2[nH]1)N1CCN(C(=O)c2cccnc2Cl)CC1 [Compound C285, 4-[(2-chloro(3-pyridyl))carbonyl]piperazinyl 5-chloroindol-2-yl ketone]	0.1 to 0.5	–

SMILES	IC50 [1] [µM]	IC50 [µM]
Cn1c(C(=O)N2CCN(C(=O)OC(C)(C)C)CC2)cc2ccccc21 [Compound C286, tert-butyl 4-[(1-methylindol-2-yl)carbonyl]piperazinecarboxylate]	0.1 to 0.5	–
O=C(C#Cc1ccc(F)cc1)N1CCN(C(=O)c2ccc(F)cc2C(F)(F)F)CC1 [Compound C287, 3-(4-fluorophenyl)-1-(4-{[4-fluoro-2-(trifluoromethyl)phenyl]carbonyl}piperazinyl)prop-2-yn-1-one]	0.1 to 0.5	–
O=C(c1cc2cc(Cl)ccc2[nH]1)N1CCN(C(=O)c2nc3ccccc3[nH]2)CC1 [Compound C288, 4-(benzimidazol-2-ylcarbonyl)piperazinyl 5-chloroindol-2-yl ketone]	0.1 to 0.5	–
O=C(c1cc2cc(Cl)ccc2[nH]1)N1CCC(Oc2ccccn2)CC1 [Compound C289, 5-chloroindol-2-yl 4-(2-pyridyloxy)piperidyl ketone]	0.1 to 0.5	–
O=C(c1csc2ccccc12)N1CCN(C(c2ccccc2)c2ccccc2)CC1 [Compound C290, benzo[b]thiophen-3-yl 4-(diphenylmethyl)piperazinyl ketone]	0.1 to 0.5	–
O=C(c1ccc(C(F)(F)F)cc1)N1CCN(C(=O)c2cc3ccc(F)cc3[nH]2)CC1 [Compound C292, 6-fluoroindol-2-yl 4-{[4-(trifluoromethyl)phenyl]carbonyl}piperazinyl ketone]	0.1 to 0.5	–
O=C(c1cc2ccc(Br)cc2[nH]1)N1CCN(Cc2ccc(F)cc2)CC1 [Compound C293, 6-bromoindol-2-yl 4-[(4-fluorophenyl)methyl]piperazinyl ketone]	0.1 to 0.5	–
O=C(C#Cc1cc(F)cc(F)c1)N1CCN(Cc2ccc(Cl)cc2)CC1 [Compound C294, 3-(3,5-difluorophenyl)-1-{4-[(4-chlorophenyl)methyl]piperazinyl}prop-2-yn-1-one]	0.1 to 0.5	–
CCN1CCN(C(=O)c2cc3cc(Cl)ccc3[nH]2)CC1 [Compound C295, 5-chloroindol-2-yl 4-ethylpiperazinyl ketone]	0.1 to 0.5	–
O=C(c1ccc2nc[nH]c2c1)N1CCN(C(c2ccccc2)c2ccccc2)CC1 [Compound C296, benzimidazol-5-yl 4-(diphenylmethyl)piperazinyl ketone]	0.1 to 0.5	–
O=C(C=Cc1ccc2c(c1)OCO2)N1CCN(Cc2ccc(Cl)cc2)CC1 [Compound C297, 3-(2H-benzo[3,4-d]1,3-dioxolan-5-yl)-1-{4-[(4-chlorophenyl)methyl]piperazinyl}prop-2-en-1-one]	0.1 to 0.5	–
O=C(C=Cc1ccc2c(c1)OCO2)N1CCN(Cc2ccc(Br)cc2)CC1 [Compound C298, 3-(2H-benzo[3,4-d]1,3-dioxolan-5-yl)-1-{4-[(4-bromophenyl)methyl]piperazinyl}prop-2-en-1-one]	0.1 to 0.5	–
O=C(c1ccc2nc(C(F)(F)F)[nH]c2c1)N1CCN(C(c2ccccc2)c2ccccc2)CC1 [Compound C299, 4-(diphenylmethyl)piperazinyl 2-(trifluoromethyl)benzimidazol-5-yl ketone]	0.1 to 0.5	–
O=C(/C=C/c1ccc(Cl)cc1F)N1CCN(C(=O)c2cc3cc(Cl)ccc3[nH]2)CC1 [Compound C300, (2E)-3-(4-chloro-2-fluorophenyl)-1-{4-[(5-chloroindol-2-yl)carbonyl]piperazinyl}prop-2-en-1-one]	< 0.1	–
O=C(c1ccc2cc3ccccc3cc2c1)N1CCN(C(c2ccccc2)c2ccccc2)CC1 [Compound C301, 2-anthryl 4-(diphenylmethyl)piperazinyl ketone]	< 0.1	–
O=C(C#Cc1cccc(Cl)c1)N1CCN(Cc2ccc(F)cc2C(F)(F)F)CC1 [Compound C302, 3-(3-chlorophenyl)-1-(4-{[4-fluoro-2-(trifluoromethyl)phenyl]methyl}piperazinyl)prop-2-yn-1-one]	< 0.1	–
COc1ccc2cc(C(=O)N3CCN(C(c4ccccc4)c4ccccc4)CC3)[nH]c2c1 [Compound C304, 4-(diphenylmethyl)piperazinyl 6-methoxyindol-2-yl ketone]	< 0.1	–
Nc1ccc(/C=C/C(=O)N2CCN(C(c3ccccc3)c3ccccc3)CC2)cc1 [Compound C305, (2E)-3-(4-aminophenyl)-1-[4-(diphenylmethyl)piperazinyl]prop-2-en-1-one]	< 0.1	–
CCOc1ccc(/C=C/C(=O)N2CCN(S(=O)(=O)c3ccc(C(C)=O)cc3)CC2)cc1 [Compound C307, 4-({4-[(2E)-3-(4-ethoxyphenyl)prop-2-enoyl]piperazinyl}sulfonyl)-1-acetylbenzene]	< 0.1	–
O=C(/C=C/c1ccccc1)N1CCN(Cc2cccc3ccccc23)CC1 [Compound C308, (2E)-1-[4-(naphthylmethyl)piperazinyl]-3-phenylprop-2-en-1-one]	< 0.1	–
O=C(C#Cc1ccccc1C(F)(F)F)N1CCN(C(=O)c2ccc(Cl)cc2)CC1 [Compound C309, 1-{4-[(4-chlorophenyl)carbonyl]piperazinyl}-3-[2-(trifluoromethyl)phenyl]prop-2-yn-1-one]	< 0.1	–
